In patent publication US7932255B2, “2-aminocarbonyl substituted piperazine or diaza-cyclic compounds as apoptosis protein inhibitors (lap) modulators” (Novartis AG, priority 2006, dated 2011):

Target: T1, XIAP (Homo sapiens, UniProt P98170)
T1 construct: GST
Assay: Disruption of the Smac peptide-(XIAP)BIR3 protein-protein interaction (Tables 2 and 3)
Format: binding
Conditions: not given
Protocol: IC50 values for Series A compounds for XIAP. An assay capable of measuring disruption of the Smac peptide-(XIAP)BIR3 protein-protein interaction is established in the art as described in Example 2. In this assay IAP Inhibitor compounds compete with an immobilized Smac peptide for occupancy of the BIR3 binding pocket of XIAP. The rationale for this strategy results from the mutually exclusive nature of either Caspase 9 or Smac binding to the BIR3 pocket.
Assays are performed and IC50 values are calculated as follows: […]
IC50 values are calculated by logarithmic regression analysis of the percentage inhibition of each compound at 4 concentrations (usually 3- or 10-fold dilution series starting at 10 μM). In each experiment, the actual inhibition by reference compound is used for normalization of IC50 values to the basis of an average value of the reference inhibitor: Normalized IC50=measured IC50 average ref. IC50/measured ref. IC50
Activity determinations of compounds herein using the testing method described herein and as are well known in the art, are used with the following test compounds of formula (I). […] “Activity” as used herein is defined as having IC50 values for IAP target inhibition of less than 10 μM. Specifically, in the table:
IC50 values for Series B compounds are provided for XIAP. Assays are performed as described above using methods well known in the art.

T1 sequence (P98170 248-358 limits assumed, species assumed): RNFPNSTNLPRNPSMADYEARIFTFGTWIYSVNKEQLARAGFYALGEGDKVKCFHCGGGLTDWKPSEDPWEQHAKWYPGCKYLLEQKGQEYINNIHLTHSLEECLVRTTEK

| Compound | IC50 [µM] |
| --- | --- |
| CN[C@@H](C)C(=O)N[C@H](C(=O)N1CCN(C(=O)Oc2ccc(F)cc2)C[C@H]1C(=O)NC1CCCc2ccccc21)C(C)C (stereo partly drawn) [Compound 34, (S)-4-[(S)-3-Methyl-2-((S)-2-methylamino-propionylamino)-butyryl]-3-(1,2,3,4-tetrahydro-naphthalen-1-ylcarbamoyl)-piperazine-1-carboxylic acid 4-fluoro-phenyl ester] | < 10 |

Same assay, conditions: Series A compounds, Table 2; read-out: XIAP IC50

| IC50 [µM] | Compound |
| --- | --- |
| < 10 | CCCN1CCN(C(=O)[C@@H](NC(=O)[C@H](C)NC)C(C)C)[C@H](C(=O)NC2CCCc3ccccc32)C1 (stereo partly drawn) [Compound 25, (S)-1-[(S)-3-Methyl-2-((S)-2-methylamino-propionylamino)-butyryl]-4-propyl-piperazine-2-carboxylic acid (1,2,3,4-tetrahydro-naphthalen-1-yl)-amide] |
| < 10 | CN[C@@H](C)C(=O)N[C@H](C(=O)N1CCN(Cc2ccccc2Cl)C[C@H]1C(=O)NC1CCCc2ccccc21)C(C)C (stereo partly drawn) [Compound 45, (S)-4-(2-Chloro-benzyl)-1-[(S)-3-methyl-2-((S)-2-methylamino-propionylamino)-butyryl]-piperazine-2-carboxylic acid (1,2,3,4-tetrahydro-naphthalen-1-yl)-amide] |
| < 10 | CN[C@@H](C)C(=O)N[C@H](C(=O)N1CCN(CCc2ccccc2)C[C@H]1C(=O)NC1CCCc2ccccc21)C(C)C (stereo partly drawn) [Compound 46, (S)-1-[(S)-3-Methyl-2-((S)-2-methylamino-propionylamino)-butyryl]-4-phenethyl-piperazine-2-carboxylic acid (1,2,3,4-tetrahydro-naphthalen-1-yl)-amide] |
| < 10 | 4-Benzyl-1-[3-methyl-2-(2-methylamino-propionylamino)-butyryl]-piperazine-2-carboxylic acid (1,2,3,4-tetrahydro-naphthalen-1-yl)-amide [Compound 1] |
| < 10 | CN[C@@H](C)C(=O)N[C@H](C(=O)N1CCN(Cc2ccc(C(F)(F)F)cc2)C[C@H]1C(=O)NC1CCCc2ccccc21)C(C)C (stereo partly drawn) [Compound 12, (S)-1-[(S)-3-Methyl-2-((S)-2-methylamino-propionylamino)-butyryl]-4-(4-trifluoromethyl-benzyl)-piperazine-2-carboxylic acid (1,2,3,4-tetrahydro-naphthalen-1-yl)-amide] |
| < 10 | CN[C@@H](C)C(=O)N[C@H](C(=O)N1CCN(Cc2cccc3[nH]ccc23)C[C@H]1C(=O)NC1CCCc2ccccc21)C(C)C (stereo partly drawn) [Compound 15, (S)-4-(1H-Indol-4-ylmethyl)-1-[(S)-3-methyl-2-((S)-2-methylamino-propionylamino)-butyryl]-piperazine-2-carboxylic acid (1,2,3,4-tetrahydro-naphthalen-1-yl)-amide] |
| < 10 | CN[C@@H](C)C(=O)N[C@H](C(=O)N1CCN(Cc2ccccn2)C[C@H]1C(=O)NC1CCCc2ccccc21)C(C)C (stereo partly drawn) [Compound 49, (S)-1-[(S)-3-Methyl-2-((S)-2-methylamino-propionylamino)-butyryl]-4-pyridin-2-ylmethyl-piperazine-2-carboxylic acid (1,2,3,4-tetrahydro-naphthalen-1-yl)-amide] |
| < 10 | CN[C@@H](C)C(=O)N[C@H](C(=O)N1CCN(Cc2ccccc2OC)C[C@H]1C(=O)NC1CCCc2ccccc21)C(C)C (stereo partly drawn) [Compound 37, (S)-4-(2-Methoxy-benzyl)-1-[(S)-3-methyl-2-((S)-2-methylamino-propionylamino)-butyryl]-piperazine-2-carboxylic acid (1,2,3,4-tetrahydro-naphthalen-1-yl)-amide] |

More lines, now with the values behind:

| Compound | IC50 [µM] |
| --- | --- |
| CN[C@@H](C)C(=O)N[C@H](C(=O)N1CCNC[C@H]1C(=O)NC1CCCc2ccccc21)C1CCCCC1 (stereo partly drawn) [Compound 59, (S)-1-[(S)-2-Cyclohexyl-2-((S)-2-methylamino-propionylamino)-acetyl]-piperazine-2-carboxylic acid (1,2,3,4-tetrahydro-naphthalen-1-yl)-amide] | < 10 |
| CN[C@@H](C)C(=O)N[C@H](C(=O)N1CCN(Cc2cccc(OC)c2)C[C@H]1C(=O)NC1CCCc2ccccc21)C(C)C (stereo partly drawn) [Compound 29, (S)-4-(3-Methoxy-benzyl)-1-[(S)-3-methyl-2-((S)-2-methylamino-propionylamino)-butyryl]-piperazine-2-carboxylic acid (1,2,3,4-tetrahydro-naphthalen-1-yl)-amide] | < 10 |
| CN[C@@H](C)C(=O)N[C@H](C(=O)N1CCN(S(=O)(=O)c2ccc(F)cc2)C[C@H]1C(=O)NC1CCCc2ccccc21)C(C)C (stereo partly drawn) [Compound 35, (S)-4-(4-Fluoro-benzenesulfonyl)-1-[(S)-3-methyl-2-((S)-2-methylamino-propionylamino)-butyryl]-piperazine-2-carboxylic acid (1,2,3,4-tetrahydro-naphthalen-1-yl)-amide] | < 10 |
| CN[C@@H](C)C(=O)N[C@H](C(=O)N1CCN(C(=O)N(C)c2ccccc2)C[C@H]1C(=O)NC1CCCc2ccccc21)C(C)C (stereo partly drawn) [Compound 50, (S)-4-[(S)-3-Methyl-2-((S)-2-methylamino-propionylamino)-butyryl]-piperazine-1,3-dicarboxylic acid 1-(methyl-phenyl-amide) 3-[(1,2,3,4-tetrahydro-naphthalen-1-yl)-amide]] | < 10 |
| CN[C@@H](C)C(=O)N[C@H](C(=O)N1CCN(C(=O)N2CCCC2)C[C@H]1C(=O)NC1CCCc2ccccc21)C(C)C (stereo partly drawn) [Compound 47, (S)-1-[(S)-3-Methyl-2-((S)-2-methylamino-propionylamino)-butyryl]-4-(pyrrolidine-1-carbonyl)-piperazine-2-carboxylic acid (1,2,3,4-tetrahydro-naphthalen-1-yl)-amide] | < 10 |
| CN[C@@H](C)C(=O)N[C@H](C(=O)N1CCN(Cc2ccccc2)C[C@H]1C(=O)NC1CCCc2ccccc21)C(C)C (stereo partly drawn) [Compound 52, (S)-4-Benzyl-1-[(S)-3-methyl-2-((S)-2-methylamino-propionylamino)-butyryl]-piperazine-2-carboxylic acid (1,2,3,4-tetrahydro-naphthalen-1-yl)-amide] | < 10 |
| CCCCN1CCN(C(=O)[C@@H](NC(=O)[C@H](C)NC)C(C)C)[C@H](C(=O)NC2CCCc3ccccc32)C1 (stereo partly drawn) [Compound 33, (S)-4-Butyl-1-[(S)-3-methyl-2-((S)-2-methylamino-propionylamino)-butyryl]-piperazine-2-carboxylic acid (1,2,3,4-tetrahydro-naphthalen-1-yl)-amide] | < 10 |
| CN[C@@H](C)C(=O)N[C@H](C(=O)N1CCN(S(C)(=O)=O)C[C@H]1C(=O)NC1CCCc2ccccc21)C(C)C (stereo partly drawn) [Compound 30, (S)-4-Methanesulfonyl-1-[(S)-3-methyl-2-((S)-2-methylamino-propionylamino)-butyryl]-piperazine-2-carboxylic acid (1,2,3,4-tetrahydro-naphthalen-1-yl)-amide] | < 10 |

Same assay, conditions: Series B compounds, Table 3; read-out: XIXP IC50

| IC50 [µM] | Compound |
| --- | --- |
| < 10 | CCN(C(=O)[C@@H]1CN(Cc2ccccc2)CCN1C(=O)[C@@H](NC(=O)[C@H](C)NC)C(C)C)C1CCCc2ccccc21 (stereo partly drawn) [Compound 76, (S)-4-Benzyl-1-[(S)-3-methyl-2-((S)-2-methylamino-propionylamino)-butyrl]-piperazine-2-carboxylic acid ethyl-(1,2,3,4-tetrahydro-naphthalen-1-yl)-amide] |
| < 10 | CN[C@@H](C)C(=O)N[C@H](C(=O)N1CCN(Cc2ccccc2)C[C@H]1C(=O)NC(Cc1ccccc1)Cc1ccccc1)C(C)C [Compound 80, (S)-4-Benzyl-1-[(S)-3-methyl-2-((S)-2-methylamino-propionylamino)-butyryl]-piperazine-2-carboxylic acid (1-benzyl-2-phenyl-ethyl)-amide] |
| > 10 | CN[C@@H](C)C(=O)N[C@H](C(=O)N1CCN(Cc2ccccc2)C[C@H]1C(=O)NCC1CCCCCC1)C(C)C [Compound 77, (S)-4-Benzyl-1-[(S)-3-methyl-2-((S)-2-methylamino-propionylamino)-butyryl]-piperazine-2-carboxylic acid cycloheptylmethyl-amide] |

The next lines start with the compound.

| Compound | IC50 [µM] |
| --- | --- |
| CN[C@@H](C)C(=O)N[C@H](C(=O)N1CCN(Cc2ccccc2)C[C@H]1C(=O)NC1CCc2ccccc2C1)C(C)C (stereo partly drawn) [Compound 74, (S)-4-Benzyl-1-[(S)-3-methyl-2-((S)-2-methylamino-propionylamino)-butyryl]-piperazine-2-carboxylic acid (1,2,3,4-tetrahydro-naphthalen-2-yl)-amide] | < 10 |
| CN[C@@H](C)C(=O)N[C@H](C(=O)N1CCN(Cc2ccccc2)C[C@H]1C(=O)NCCCc1ccccc1)C(C)C [Compound 72, (S)-4-Benzyl-1-[(S)-3-methyl-2-((S)-2-methylamino-propionylamino)-butyryl]-piperazine-2-carboxylic acid (3-phenyl-propyl)-amide] | > 10 |
| CN[C@@H](C)C(=O)N[C@H](C(=O)N1CCN(Cc2ccccc2)C[C@H]1C(=O)NCc1ccccc1)C(C)C [Compound 65, (S)-4-Benzyl-1-[(S)-3-methyl-2-((S)-2-methylamino-propionylamino)-butyryl]-piperazine-2-carboxylic acid benzylamide] | < 10 |
| CN[C@@H](C)C(=O)N[C@H](C(=O)N1CCN(Cc2ccccc2)C[C@H]1C(=O)NCC1CCCC1)C(C)C [Compound 81, (S)-4-Benzyl-1-[(S)-3-methyl-2-((S)-2-methylamino-propionylamino)-butyryl]-piperazine-2-carboxylic acid cyclopentylmethyl-amide] | < 10 |
